Measurements as given in patent US20230234943A1, “TREX1 INHIBITORS AND USES THEREOF” (Tempest Therapeutics, Inc., priority 2020, published 2023).

Target: T1, Human TREX1 enzyme (amino acids 1-242) (Homo sapiens, UniProt Q9NSU2)
T1 construct: Human TREX1 enzyme (amino acids 1-242)
T1 sequence (Q9NSU2 1-242): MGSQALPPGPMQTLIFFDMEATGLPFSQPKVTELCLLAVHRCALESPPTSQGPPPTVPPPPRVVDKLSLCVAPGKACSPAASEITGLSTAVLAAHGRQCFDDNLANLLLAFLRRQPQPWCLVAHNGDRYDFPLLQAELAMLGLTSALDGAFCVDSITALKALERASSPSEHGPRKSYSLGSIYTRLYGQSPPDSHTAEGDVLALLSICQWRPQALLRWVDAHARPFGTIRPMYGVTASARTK
Assay: Human TREX1 enzymatic assay with dsDNA native oligonucleotide (Picogreen fluorescence)
Assay type: biochemical
Conditions: 2 mM dithiothreitol in assay buffer; 50 nM dsDNA oligonucleotide; 30 min preincubation at 25° C.; read-out: TREX1/Human + DTT IC50 AVG
Description: Example A. Human TREX1 Enzymatic Assay with dsDNA Native Oligonucleotide
Human TREX1 enzyme (amino acids 1-242) was diluted in assay buffer (20 mM Tris pH 7.7, 5 mM MgCl2, 0.01% human serum albumin, 0.01% Brij™-35, 2 mM dithiothreitol) to a final concentration of 0.8 nM to 0.16 nM and added to a 96-well low-binding polypropylene plate. Test compounds were diluted in DMSO to 50× concentration (final DMSO concentration in reaction mixture of 2%) and added to the wells with a concentration ranging from 300 μM to 13 nM or 30 μM to 1.5 nM. The reaction mixtures were incubated for 30 minutes at 25° C. and a solution of annealed dsDNA oligonucleotide (5′-[…]-3′ and Comp: 5′-[…]-3′) was added to a final concentration of 50 nM. The reaction mixtures were incubated at 25° C. for 5-15 minutes and subsequently quenched by transferring part of the assay reaction to a solution of 100 mM ethylenediaminetetraacetic acid and 1:100 Picogreen™ (final concentration of […]) in a black plate with an opaque bottom. The fluorescence ([…]) was measured using a Molecular Devices SpectraMax plate reader. Wells containing oligonucleotide but no TREX1 enzyme were used as negative controls. Wells containing oligonucleotide, TREX1 enzyme, and DMSO were used as positive controls.

IC50 | SMILES
> 100 µM | COc1cc(-c2nc3c(C)ncnc3[nH]2)cc(O)c1O [Example 41, 3-methoxy-5-(6-methyl-9H-purin-8-yl)benzene-1,2-diol]
10 to 100 µM | COc1cc(-c2nc3ccc(S(=O)(=O)Nc4ccccc4)cc3n2C(CO)CCl)cc(O)c1O (stereo not shown) [Example 42, 1-(1-chloro-3-hydroxypropan-2-yl)-2-(3,4-dihydroxy-5-methoxyphenyl)-N-phenyl-1H-benzo[d]imidazole-6-sulfonamide]
10 to 100 µM | COc1cc(-c2nc3ccncc3n2C2COC2)cc(O)c1O [Example 43, 3-methoxy-5-(3-(oxetan-3-yl)-3H-imidazo[4,5-c]pyridin-2-yl)benzene-1,2-diol]
> 100 µM | COc1cc(-c2nc3ccncc3n2C)cc(O)c1O [Example 44, 3-methoxy-5-(3-methyl-3H-imidazo[4,5-c]pyridin-2-yl)benzene-1,2-diol]
> 100 µM | COc1cc(-c2nc3cnccc3n2C)cc(O)c1O [Example 45, 3-methoxy-5-(1-methyl-1H-imidazo[4,5-c]pyridin-2-yl)benzene-1,2-diol]
10 to 100 µM | COc1cc(-c2nc3cc(S(=O)(=O)Nc4ccccc4)ccc3n2C2COC2)cc(O)c1O [Example 46, 2-(3,4-dihydroxy-5-methoxyphenyl)-1-(oxetan-3-yl)-N-phenyl-1H-benzo[d]imidazole-5-sulfonamide]
10 to 100 µM | COc1cc(-c2nc3cnccc3n2C2COC2)cc(O)c1O [Example 47, 3-methoxy-5-(1-(oxetan-3-yl)-1H-imidazo[4,5-c]pyridin-2-yl)benzene-1,2-diol]
> 100 µM | COc1cc(-c2nc3cc(N4CCCCC4)ccc3[nH]2)cc(O)c1O [Example 48, 3-methoxy-5-(5-(piperidin-1-yl)-1H-benzo[d]imidazol-2-yl)benzene-1,2-diol]
> 100 µM | COc1cc(-c2nc3cc(N4CCC(c5ccccc5)CC4)ccc3[nH]2)cc(O)c1O [Example 49, 3-methoxy-5-(5-(4-phenylpiperidin-1-yl)-1H-benzo[d]imidazol-2-yl)benzene-1,2-diol]
1 to 10 µM | COc1cc(-c2nc3cc(N4CCN(S(C)(=O)=O)CC4)ccc3[nH]2)cc(O)c1O [Example 50, 3-methoxy-5-(5-(4-(methylsulfonyl)piperazin-1-yl)-1H-benzo[d]imidazol-2-yl)benzene-1,2-diol]
> 100 µM | COc1cc(-c2nc3ccc(N4CCN(C)CC4)cc3n2C2COC2)cc(O)c1O [Example 51, 3-methoxy-5-(6-(4-methylpiperazin-1-yl)-1-(oxetan-3-yl)-1H-benzo[d]imidazol-2-yl)benzene-1,2-diol]
> 100 µM | COc1cc(-c2nc3cc(N4CCN(CC(F)(F)F)CC4)ccc3[nH]2)cc(O)c1O [Example 52, 3-methoxy-5-(5-(4-(2,2,2-trifluoroethyl)piperazin-1-yl)-1H-benzo[d]imidazol-2-yl)benzene-1,2-diol]
> 100 µM | COc1cc(-c2nc3cc(N4CCN(c5ccccc5)CC4)ccc3[nH]2)cc(O)c1O [Example 53, 3-methoxy-5-(5-(4-phenylpiperazin-1-yl)-1H-benzo[d]imidazol-2-yl)benzene-1,2-diol]
10 to 100 µM | COc1cc(-c2nc3ccncc3n2C)c(C)c(O)c1O [Example 54, 6-methoxy-3-methyl-4-(3-methyl-3H-imidazo[4,5-c]pyridin-2-yl)benzene-1,2-diol]
> 100 µM | COc1cc(-c2nc3cc(N4CCOCC4)ncc3[nH]2)cc(O)c1O [Example 55, 3-methoxy-5-(6-morpholino-3H-imidazo[4,5-c]pyridin-2-yl)benzene-1,2-diol]
> 100 µM | O=C(O)c1ccc(-c2nc3ccccc3n2C2COC2)cc1O [Example 56, 2-hydroxy-4-(1-(oxetan-3-yl)-1H-benzo[d]imidazol-2-yl)benzoic acid]
> 100 µM | COc1cc(-c2nc3cc(N4CCN(C5CCCCC5)CC4)ccc3[nH]2)cc(O)c1O [Example 57, 5-(5-(4-cyclohexylpiperazin-1-yl)-1H-benzo[d]imidazol-2-yl)-3-methoxybenzene-1,2-diol]
> 100 µM | COc1cc(-c2nc3cc(C4CCNCC4)ccc3[nH]2)cc(O)c1O [Example 58, 3-methoxy-5-(5-(piperidin-4-yl)-1H-benzo[d]imidazol-2-yl)benzene-1,2-diol]
10 to 100 µM | COc1cc(-c2nc3cc(N4CCN(Cc5ccccc5)CC4)ccc3[nH]2)cc(O)c1O [Example 59, 5-(5-(4-benzylpiperazin-1-yl)-1H-benzo[d]imidazol-2-yl)-3-methoxybenzene-1,2-diol]

IC50 | SMILES
10 to 100 µM | COc1cc(-c2nc3cc(N4CCN(C)CC4)ccc3n2C2COC2)cc(O)c1O [Example 60, 3-methoxy-5-(5-(4-methylpiperazin-1-yl)-1-(oxetan-3-yl)-1H-benzo[d]imidazol-2-yl)benzene-1,2-diol]
> 100 µM | COCCN1CCN(c2ccc3[nH]c(-c4cc(O)c(O)c(OC)c4)nc3c2)CC1 [Example 61, 3-methoxy-5-(5-(4-(2-methoxyethyl)piperazin-1-yl)-1H-benzo[d]imidazol-2-yl)benzene-1,2-diol]
1 to 10 µM | COc1cc(-c2nc3cc(N4CCN(c5cccnc5)CC4)ccc3[nH]2)cc(O)c1O [Example 62, 3-methoxy-5-(5-(4-(pyridin-3-yl)piperazin-1-yl)-1H-benzo[d]imidazol-2-yl)benzene-1,2-diol]
10 to 100 µM | COc1cc(-c2nc3ccc(N4CCOCC4)cc3n2C)cc(O)c1O [Example 63, 3-methoxy-5-(1-methyl-6-morpholino-1H-benzo[d]imidazol-2-yl)benzene-1,2-diol]
10 to 100 µM | COc1c(O)c(O)c(C)c(-c2nc3ccccc3[nH]2)c1F [Example 64, 4-(1H-benzo[d]imidazol-2-yl)-5-fluoro-6-methoxy-3-methylbenzene-1,2-diol]
> 100 µM | CCCCN1CCN(c2ccc3[nH]c(-c4cc(O)c(O)c(OC)c4)nc3c2)CC1 [Example 65, 5-(5-(4-butylpiperazin-1-yl)-1H-benzo[d]imidazol-2-yl)-3-methoxybenzene-1,2-diol]
10 to 100 µM | COc1cc(-c2nc3cc(N4CCN(CCF)CC4)ccc3[nH]2)cc(O)c1O [Example 66, 5-(5-(4-(2-fluoroethyl)piperazin-1-yl)-1H-benzo[d]imidazol-2-yl)-3-methoxybenzene-1,2-diol]
> 100 µM | COc1ccc2c(c1)CCN(c1ccc3[nH]c(-c4cc(O)c(O)c(OC)c4)nc3c1)C2 [Example 67, 3-methoxy-5-(5-(6-methoxy-3,4-dihydroisoquinolin-2(1H)-yl)-1H-benzo[d]imidazol-2-yl)benzene-1,2-diol]
> 100 µM | COc1cc(-c2nc3cc(C4CCN(C)CC4)ccc3[nH]2)cc(O)c1O [Example 68, 3-methoxy-5-(5-(1-methylpiperidin-4-yl)-1H-benzo[d]imidazol-2-yl)benzene-1,2-diol]
> 100 µM | COc1cc(-c2nc3cc(-c4ccccc4)ccc3[nH]2)cc(O)c1O [Example 69, 3-methoxy-5-(5-phenyl-1H-benzo[d]imidazol-2-yl)benzene-1,2-diol]
> 100 µM | COc1cc(-c2nc3cc(N4CCOCC4)cnc3[nH]2)cc(O)c1O [Example 70, 3-methoxy-5-(6-morpholino-3H-imidazo[4,5-b]pyridin-2-yl)benzene-1,2-diol]
10 to 100 µM | O=C(O)c1cc(-c2nc3ccncc3[nH]2)ccc1O [Example 71, 2-hydroxy-5-(3H-imidazo[4,5-c]pyridin-2-yl)benzoic acid]
10 to 100 µM | COc1cc(-c2nc3cc(N4CCN(C(C)C)CC4)ccc3[nH]2)cc(O)c1O [Example 72, 5-(5-(4-isopropylpiperazin-1-yl)-1H-benzo[d]imidazol-2-yl)-3-methoxybenzene-1,2-diol]
> 100 µM | COc1cc(-c2nc3cc(N4CCN(c5ccccn5)CC4)ccc3[nH]2)cc(O)c1O [Example 73, 3-methoxy-5-(5-(4-(pyridin-2-yl)piperazin-1-yl)-1H-benzo[d]imidazol-2-yl)benzene-1,2-diol]
10 to 100 µM | COc1cc(-c2nc3cc(N4CCC(N(C)C)CC4)ccc3[nH]2)cc(O)c1O [Example 74, 5-(5-(4-(dimethylamino)piperidin-1-yl)-1H-benzo[d]imidazol-2-yl)-3-methoxybenzene-1,2-diol]
> 100 µM | COc1cc(-c2nc3cc(C4CCCCC4)ccc3[nH]2)cc(O)c1O [Example 75, 5-(5-cyclohexyl-1H-benzo[d]imidazol-2-yl)-3-methoxybenzene-1,2-diol]
10 to 100 µM | COc1cc(-c2nc3c(N4CCOCC4)cncc3[nH]2)cc(O)c1O [Example 76, 3-methoxy-5-(7-morpholino-3H-imidazo[4,5-c]pyridin-2-yl)benzene-1,2-diol]
10 to 100 µM | COc1cc(-c2nc3ccncc3s2)cc(O)c1O [Example 77, 3-methoxy-5-(thiazolo[5,4-c]pyridin-2-yl)benzene-1,2-diol]
